Data: patent US11046722B2, “Sulphated disaccharides for the treatment of neuropathic pain” (BIOIBERICA, S.A.U., priority 2017, dated 2021)

Legend:
[1] = tested on: mechanical allodynia due to diabetes induced by injecting streptozotocin; assay: Diabetic allodynia induced by streptozotocin injection (von Frey, 50% pain threshold); type: in vivo, mice; conditions: streptozotocin 60 mg/Kg i.p. for five days, day 25, 45 minutes after administration
Source text: In Example 5 an experimental trial is described of mechanical allodynia in diabetic mice induced by intraperitoneal streptozotocin injection, based on the model described in the article by Courteix et al., Streptozotocin-induced diabetic rats: behavioural evidence for a model of chronic pain, Pain, 1993, 81-88. This model is based on causing a mechanical allodynia in mice by inducing diabetes by means of intraperitoneal streptozotocin injection. It is observed that the administration of different doses of compound Ic is effective in reversing the allodynia induced by diabetes, as quantified by the statistically significant increase observed in the treated animals, of the threshold force that is necessary to apply in order to produce paw withdrawal in the animals (FIG. 7). […] For the evaluation of the effect of the Ic compound on the allodynia induced in this manner by diabetes, five groups of animals were used with at least 7 animals in each group, and the allodynia was quantified using von Frey filaments, according to the force threshold necessary to cause the animal's paw's withdrawal. Compound Ic was administered orally to the animals by gavage, in a single administration and allodynia was measured in each animal immediately before the administration and 45 minutes after the administration. […]

[2] = tested on: mechanical allodynia induced in mice by intraplantar capsaicin injection; assay: Mechanical allodynia induced by intraplantar capsaicin injection (von Frey, latency to paw withdrawal); type: in vivo
Source text: Thus, in Example 1, an experimental trial is described performed on mice with mechanical allodynia induced by intraplantar capsaicin injection, according to the model described in the article by Entrena et al., Antagonism by haloperidol and its metabolites of mechanical hypersensitivity induced by intraplantar capsaicin in mice: role of sigma-1 receptors, Psychopharmacology, 2009, 205, 21-33. This trial is based on hypersensitivity induced in the mice by means of injecting capsaicin in the right hind paw. The allodynia is quantified by measuring the decrease in latency time in the hypersensitized mice until paw withdrawal, when a mechanical stimulus is applied to it.
For this trial, 6 groups of mice were used with between 8 and 12 animals in each group. […] 15 minutes after the injection, different mechanical stimuli were applied with a von Frey filament with a force of 0.5 g in an esthesiometer, and the values of the latency time until paw withdrawal were recorded. […]
In order to quantify the anti-allodynic effect, a value of 100% allodynia was assigned to the latency time of the animals injected with capsaicin and without pharmacological treatment (only treated with the vehicle). […]

CO[C@H]1O[C@H](COS(=O)(=O)[O-])[C@@H](OS(=O)(=O)[O-])[C@H](O[C@@H]2O[C@H](C(=O)[O-])[C@@H](O)[C@H](O)[C@H]2O)[C@H]1NC(C)=O.[Na+].[Na+].[Na+] [Compound Ic, methyl 2-acetamido-2-desoxi-3-O-(β-D-glucopyranosyluronic acid)-4,6-di-O-sulfo-α-D-glucopyranoside trisodium salt]
reversal of the allodynia induced by diabetes ([1]; 10 mg/kg single oral dose by gavage): effective at reversing the allodynia
reversal of the allodynia induced by diabetes ([1]; 30 mg/kg single oral dose by gavage, differences statistically significant): effective at reversing the allodynia
anti-allodynic effect ([2]; capsaicin 1 μg intraplantar, 3, 10 and 30 mg/Kg by gavage 45 minutes before the trial, effect dose-dependent): notable anti-allodynic effect
reduction of the allodynia ([2]; capsaicin, highest dose 30 mg/Kg by gavage 45 minutes before the trial, 100% = capsaicin + vehicle): more than 50%
